Reference: publication PMC11839852, “Preclinical comparison of (radio)lanthanides using mass spectrometry and nuclear imaging techniques: biodistribution of lanthanide-based tumor-targeting agents and lanthanides in ionic form” (European Journal of Nuclear Medicine and Molecular Imaging, 2024)
Read-outs that look alike come from different tables or passages of the source. Marks after values point to notes of the source that are not given here.

Tests used:
[1] = parameters: method as in doi:10.1007/BF02040048, PMID 16411740, PMID 16644751; conditions: coordination with DOTA chelator; cited from earlier work
[2] = system: non-tumor-bearing immunocompetent FVB mice; test: Biodistribution of Ln-DTPA complexes (multiplexed ICP-MS); conditions: 1 h p.i.
[3] = system: AR42J, PC-3 PIP and KB tumor cells; test: In vitro cell uptake of Ln-DTPA complexes; format: cell-based; conditions: all tumor cell lines, 1 h and 4 h incubation
Experimental: (§1) A mixture of equal molar amounts of the lanthanide chloride salts (100 nM stock solutions of ^natLuCl3, ^natTbCl3, ^natGdCl3, and ^natEuCl3, diluted in saline with an adjusted pH value to 3.5‒4.0) was prepared to obtain a final concentration of 10 pmol/mL (2.5 pmol/mL per lanthanide salt) and tested with AR42J, PC-3 PIP and KB tumor cells according to the same protocol as described for the Ln-labeled biomolecules (Supplementary Material). Analogous in vitro cell uptake studies were also performed with lanthanide metal complexes of diethylenetriaminepentaacetic acid (DTPA, Sigma Aldrich Chemie, Steinheim, Germany) to obtain a final concentration of 10 pmol/mL (2.5 pmol/mL per lanthanide complex) (Supplementary Material).
Methods: The same experimental setting as described for Ln-labeled biomolecules was applied to perform uptake and internalization studies with the lanthanide DTPA complexes (Ln-DTPA; Ln = ^natLu, ^natTb, ^natGd and ^natEu). The lanthanides were dissolved in 0.05 M hydrochloric acid and further diluted in a 1:5 (v/v) mixture of sodium acetate (0.5 M) and hydrochloric acid (0.05 M), pH ~4.5. A 10-fold molar excess of DTPA (5 mM, aq.) was added to each lanthanide dilution and the reaction mixtures were incubated for 10 min at 95 °C. The complexed lanthanides were further diluted in saline with an adjusted pH value to 3.5-4.0 for in vitro experiments. The applied solution was a mixture of the four Ln-DTPA complexes at a final concentration of 0.4 µM. Of these mixtures, 25 μL were added to the well with the corresponding tumor cells. The tumor cells were incubated for 1 h and 4 h, respectively, at 37 °C and 5% CO2. After incubation, the tumor cells were treated as described for the Ln-labeled biomolecules and processed for the measurement with ICP-MS.

[4] = system: AR42J tumor cells; test: In vitro cell uptake of lanthanide chloride salts; format: cell-based, rat
Experimental: as §1
Cell uptake studies were performed in triplicate in 3‒6 independent experiments and the results presented as the average ± standard deviation (SD). Data were normalized to the values measured for the ^175Lu-labeled tumor targeting agent or [^175Lu]LuCl3, which were set as 100% and zero was defined as 0%. Statistical significance of the normalized data was assessed for the comparison of the values obtained for terbium, gadolinium and europium analogues with those obtained for the lutetium counterparts by applying one-way ANOVA with the Dunnett’s post-test using GraphPad Prism software (version 8). A p-value of < 0.05 was considered statistically significant.
Methods: The same experimental setting as described for Ln-labeled biomolecules was applied to perform uptake and internalization studies with the lanthanide salts (LnCl3; Ln = ^natLu, ^natTb, ^natGd and ^natEu). The applied solution was a mixture of the four lanthanide salts yielding a final concentration of 0.4 µM. Of these mixtures, 25 μL were added to the corresponding well with tumor cells. The cells were incubated for 1 h and 4 h, respectively, at 37 °C and 5% CO2. After incubation, the tumor cells were treated as described for the Ln-labeled biomolecules and processed for the measurement with ICP-MS.

[5] = system: non-tumor-bearing immunocompetent FVB mice; test: Biodistribution of lanthanide chloride salts LnCl3 (multiplexed ICP-MS); format: in vivo; conditions: for Tissue uptake: Blood / Tissue uptake: Bone / Tissue uptake: Brain / Tissue uptake: Heart / Tissue uptake: Intestines / Tissue uptake: Kidneys / Tissue uptake: Liver / Tissue uptake: Lung / Tissue uptake: Muscle / Tissue uptake: Pancreas / Tissue uptake: Salivary glands / Tissue uptake: Spleen / Tissue uptake: Stomach: non-tumor-bearing mice
[6] = system: non-tumor-bearing immunocompetent FVB mice; conditions: mouse, in vivo, 1 h
[7] = 24 h p.i., estimated ratios (organ <0.5% ID/g)
[8] = 96 h p.i., estimated ratios (organ <0.5% ID/g)

SMILES: O=C([O-])CN1CCN(CC(=O)[O-])CCN(CC(=O)[O-])CCN(CC(=O)[O-])CC1.[Eu+3] [Eu-DOTA]
- logK [1]: 23.4

SMILES: O=C([O-])CN1CCN(CC(=O)[O-])CCN(CC(=O)O)CCN(CC(=O)[O-])CC1.[Gd+3] [Gd-DOTA]
- logK [1]: 24.6

SMILES: O=C([O-])CN1CCN(CC(=O)[O-])CCN(CC(=O)[O-])CCN(CC(=O)[O-])CC1.[Lu+3] [Lu-DOTA]
- logK [1]: 25.4

SMILES: O=C([O-])CN1CCN(CC(=O)[O-])CCN(CC(=O)[O-])CCN(CC(=O)[O-])CC1.[Tb+3] [Tb-DOTA]
- logK [1]: 24.2

SMILES: O=C([O-])CN(CCN(CC(=O)[O-])CC(=O)[O-])CCN(CC(=O)[O-])CC(=O)[O-].[Eu+3] [[^153Eu]Eu-DTPA]
- Tissue uptake: Blood [2]: <0.5 % ID/g
- Tissue uptake: Bone [2]: <0.5 % ID/g
- Tissue uptake: Brain [2]: <0.5 % ID/g
- Tissue uptake: Heart [2]: <0.5 % ID/g
- Tissue uptake: Intestines [2]: <0.5 % ID/g
- Tissue uptake: Kidneys [2]: 2.1 ± 1.0 % ID/g
- Tissue uptake: Liver [2]: <0.5 % ID/g
- Tissue uptake: Lung [2]: <0.5 % ID/g
- Tissue uptake: Muscle [2]: <0.5 % ID/g
- Tissue uptake: Pancreas [2]: <0.5 % ID/g
- Tissue uptake: Salivary glands [2]: <0.5 % ID/g
- Tissue uptake: Spleen [2]: <0.5 % ID/g
- Tissue uptake: Stomach [2]: 0.51 ± 0.07 % ID/g
- Lanthanide detected in cell samples (background levels) [3]: < 20 ppt

SMILES: [Cl-].[Cl-].[Cl-].[Eu+3] [[^153Eu]EuCl3]
- Lanthanide uptake compared with [175Lu]LuCl3 [4]: lower uptake
- Organ ratios: Blood-to-bone ([5]; 1 h p.i.): 0.40 ± 0.05
- Organ ratios: Blood-to-liver ([5]; 1 h p.i.): 0.14 ± 0.02
- Organ ratios: Liver-to-bone ([5]; 1 h p.i.): 3.0 ± 0.4
- Tissue uptake: Blood ([5]; 1 h p.i.): 5.5 ± 0.6 % ID/g
- Tissue uptake: Bone ([5]; 1 h p.i.): 14 ± 2 % ID/g
- Tissue uptake: Brain ([5]; 1 h p.i.): 1.2 ± 0.9 % ID/g
- Tissue uptake: Heart ([5]; 1 h p.i.): 5.3 ± 2.1 % ID/g
- Tissue uptake: Intestines ([5]; 1 h p.i.): 2.6 ± 0.9 % ID/g
- Tissue uptake: Kidneys ([5]; 1 h p.i.): 8.1 ± 2.1 % ID/g
- Tissue uptake: Liver ([5]; 1 h p.i.): 41 ± 5 % ID/g
- Tissue uptake: Lung ([5]; 1 h p.i.): 4.8 ± 1.1 % ID/g
- Tissue uptake: Muscle ([5]; 1 h p.i.): 1.7 ± 1.0 % ID/g
- Tissue uptake: Pancreas ([5]; 1 h p.i.): 2.2 ± 1.0 % ID/g
- Tissue uptake: Salivary glands ([5]; 1 h p.i.): 2.7 ± 1.7 % ID/g
- Tissue uptake: Spleen ([5]; 1 h p.i.): 6.9 ± 1.6 % ID/g
- Tissue uptake: Stomach ([5]; 1 h p.i.): 6.0 ± 2.3 % ID/g
- Organ ratios: Liver-to-bone ([5]; 24 h p.i.): 2.7 ± 0.8
- Organ ratios: Blood-to-bone [5, 7]: <0.04^*
- Organ ratios: Blood-to-liver [5, 7]: <0.01^*
- Tissue uptake: Blood ([5]; 24 h p.i.): <0.5 % ID/g
- Tissue uptake: Bone ([5]; 24 h p.i.): 14 ± 3 % ID/g
- Tissue uptake: Brain ([5]; 24 h p.i.): <0.5 % ID/g
- Tissue uptake: Heart ([5]; 24 h p.i.): 1.0 ± 0.1 % ID/g
- Tissue uptake: Intestines ([5]; 24 h p.i.): 0.58 ± 0.06 % ID/g
- Tissue uptake: Kidneys ([5]; 24 h p.i.): 3.8 ± 0.9 % ID/g
- Tissue uptake: Lung ([5]; 24 h p.i.): 1.1 ± 0.2 % ID/g
- Tissue uptake: Muscle ([5]; 24 h p.i.): <0.5 % ID/g
- Tissue uptake: Pancreas ([5]; 24 h p.i.): <0.5 % ID/g
- Tissue uptake: Salivary glands ([5]; 24 h p.i.): 0.53 ± 0.17 % ID/g
- Tissue uptake: Spleen ([5]; 24 h p.i.): 5.6 ± 1.1 % ID/g
- Tissue uptake: Stomach ([5]; 24 h p.i.): 1.9 ± 0.5 % ID/g
- Tissue uptake: Liver ([5]; 24 h p.i., listed as europium): 37 ± 7 % ID/g
- Tissue uptake: Liver ([5]; 24 h p.i., listed as natEu): ~ 37 % ID/g
- Organ ratios: Liver-to-bone ([5]; 96 h p.i.): 1.3 ± 0.2
- Organ ratios: Blood-to-bone [5, 8]: <0.03^*
- Organ ratios: Blood-to-liver [5, 8]: <0.02^*
- Tissue uptake: Blood ([5]; 96 h p.i.): <0.5 % ID/g
- Tissue uptake: Bone ([5]; 96 h p.i.): 18 ± 3 % ID/g
- Tissue uptake: Brain ([5]; 96 h p.i.): <0.5 % ID/g
- Tissue uptake: Heart ([5]; 96 h p.i.): 0.83 ± 0.05 % ID/g
- Tissue uptake: Intestines ([5]; 96 h p.i.): 0.53 ± 0.04 % ID/g
- Tissue uptake: Kidneys ([5]; 96 h p.i.): 1.9 ± 0.1 % ID/g
- Tissue uptake: Liver ([5]; 96 h p.i.): 23 ± 1 % ID/g
- Tissue uptake: Lung ([5]; 96 h p.i.): 0.88 ± 0.15 % ID/g
- Tissue uptake: Muscle ([5]; 96 h p.i.): <0.5 % ID/g
- Tissue uptake: Pancreas ([5]; 96 h p.i.): <0.5 % ID/g
- Tissue uptake: Salivary glands ([5]; 96 h p.i.): <0.5 % ID/g
- Tissue uptake: Spleen ([5]; 96 h p.i.): 3.5 ± 0.3 % ID/g
- Tissue uptake: Stomach ([5]; 96 h p.i.): 2.3 ± 0.3 % ID/g

SMILES: O=C([O-])CN(CCN(CC(=O)[O-])CC(=O)[O-])CCN(CC(=O)[O-])CC(=O)[O-].[Gd+3] [[^157Gd]Gd-DTPA]
- Tissue uptake: Blood [6]: <0.5 % ID/g
- Tissue uptake: Bone [6]: <0.5 % ID/g
- Tissue uptake: Brain [6]: <0.5 % ID/g
- Tissue uptake: Heart [6]: 0.55 ± 0.06 % ID/g
- Tissue uptake: Intestines [6]: <0.5 % ID/g
- Tissue uptake: Kidneys [6]: 2.1 ± 0.9 % ID/g
- Tissue uptake: Liver [6]: <0.5 % ID/g
- Tissue uptake: Lung [6]: 0.56 ± 0.12 % ID/g
- Tissue uptake: Muscle [6]: 0.51 ± 0.07 % ID/g
- Tissue uptake: Pancreas [6]: <0.5 % ID/g
- Tissue uptake: Salivary glands [6]: <0.5 % ID/g
- Tissue uptake: Spleen [6]: 0.52 ± 0.03 % ID/g
- Tissue uptake: Stomach [6]: 0.77 ± 0.17 % ID/g
- Lanthanide detected in cell samples (background levels) [3]: < 60 ppt

SMILES: O=C([O-])CN(CCN(CC(=O)[O-])CC(=O)[O-])CCN(CC(=O)[O-])CC(=O)[O-].[Tb+3] [[^159Tb]Tb-DTPA]
- Tissue uptake: Blood [2]: <0.5 % ID/g
- Tissue uptake: Bone [2]: <0.5 % ID/g
- Tissue uptake: Brain [2]: <0.5 % ID/g
- Tissue uptake: Heart [2]: <0.5 % ID/g
- Tissue uptake: Intestines [2]: <0.5 % ID/g
- Tissue uptake: Kidneys [2]: 2.1 ± 1.0 % ID/g
- Tissue uptake: Liver [2]: <0.5 % ID/g
- Tissue uptake: Lung [2]: <0.5 % ID/g
- Tissue uptake: Muscle [2]: <0.5 % ID/g
- Tissue uptake: Pancreas [2]: <0.5 % ID/g
- Tissue uptake: Salivary glands [2]: <0.5 % ID/g
- Tissue uptake: Spleen [2]: <0.5 % ID/g
- Tissue uptake: Stomach [2]: <0.5 % ID/g
- Lanthanide detected in cell samples (background levels) [3]: < 20 ppt

SMILES: O=C([O-])CN(CCN(CC(=O)[O-])CC(=O)[O-])CCN(CC(=O)[O-])CC(=O)[O-].[Lu+3] [[^175Lu]Lu-DTPA]
- Tissue uptake: Blood [2]: <0.5 % ID/g
- Tissue uptake: Bone [2]: <0.5 % ID/g
- Tissue uptake: Brain [2]: <0.5 % ID/g
- Tissue uptake: Heart [2]: <0.5 % ID/g
- Tissue uptake: Intestines [2]: <0.5 % ID/g
- Tissue uptake: Kidneys [2]: 2.3 ± 1.0 % ID/g
- Tissue uptake: Liver [2]: <0.5 % ID/g
- Tissue uptake: Lung [2]: <0.5 % ID/g
- Tissue uptake: Muscle [2]: <0.5 % ID/g
- Tissue uptake: Pancreas [2]: <0.5 % ID/g
- Tissue uptake: Salivary glands [2]: <0.5 % ID/g
- Tissue uptake: Spleen [2]: <0.5 % ID/g
- Tissue uptake: Stomach [2]: <0.5 % ID/g
- Lanthanide detected in cell samples (background levels) [3]: < 20 ppt
